Earlier results, collected in patent EP3731816B1, “SOLID ORAL PHARMACEUTICAL COMPOSITIONS COMPRISING APIXABAN” (Sanovel Ilac Sanayi ve Ticaret A.S., priority 2017, dated 2019).
≈ marks a conversion by molar mass, not a printed value.

Key:
[1] = at 24 °C
[2] = single 10 mg dose

In the case of `COc1ccc(-n2nc(C(N)=O)c3c2C(=O)N(c2ccc(N4CCCCC4=O)cc2)CC3)cc1` [Apixaban, 1-(4-methoxyphenyl)-7-oxo-6-[4-(2-oxopiperidin-1-yl)phenyl]-4,5,6,7-tetrahydro-1H-pyrazolo[3,4-c]pyridine-3-carboxamide], the solubility in water [1] is listed as 28 µg/mL (≈ 60.9 µM) and the oral bioavailability [2] is listed as “about 50%”.
